Patent publication US9284308B2, “Methylene linked quinolinyl modulators of RORγt” (Janssen Pharmaceutica NV, priority 2013, dated 2016)
Counter-ions that a name gives are not always drawn.

How the values were obtained:
[1] = system: IL-17 production by CD4 T cells; experiment: Human Th17 assay; type: cell-based; conditions: IL-17 production by human CD4 T cells
Experimental: The human Th17 assay tests the effect of RORγt modulatory compounds on IL-17 production by CD4 T cells under conditions which favor Th17 differentiation. Total CD4^+ T cells were isolated from the peripheral blood mononuclear cells (PBMC) of healthy donors using a CD4^+ T cell isolation kit II, following the manufacturer's instructions (Miltenyi Biotec). […] 50 μL of compound at titrated concentrations in DMSO were added into each well at final DMSO concentration at 0.2%. Cells were incubated for 1 hour, then 50 μL of Th17 cell differentiation medium was added to each well. The final concentrations of antibodies and cytokines (R&D Systems) in differentiation medium were: 3×10^6/mL anti-CD3/CD28 beads (prepared using human T cell activation/expansion kit, Miltenyi Biotec), 10 μg/mL anti-IL4, 10 μg/mL anti-IFNγ, 10 ng/mL IL1β, 10 ng/mL IL23, 50 ng/mL IL6, 3 ng/mL TGFβ and 20 U/mL IL2. Cells were cultured at 37° C. and 5% CO2 for 3 days. Supernatants were collected and the accumulated IL-17 in culture was measured by using MULTI-SPOT® Cytokine Plate following manufacture's instruction (Meso Scale Discovery). The plate was read using Sector Imager 6000, and IL-17 concentration was extrapolated from the standard curve. The IC50s were determined by GraphPad.

human RORγt LBD = molecular target: T1, human RORγt LBD (Homo sapiens, UniProt P51449); experiment: RORγt (LBD) reporter assay in HEK293T cells; type: cell-based; conditions: for inhibition at 6 µM: HEK-293T, read-out: RORγt (LBD) Reporter Assay, % inhibition @ 6 μM, 6 μM compound
T1 construct: expressed in transfected cells; host or cells: HEK293T
T1 sequence (P51449 258-518): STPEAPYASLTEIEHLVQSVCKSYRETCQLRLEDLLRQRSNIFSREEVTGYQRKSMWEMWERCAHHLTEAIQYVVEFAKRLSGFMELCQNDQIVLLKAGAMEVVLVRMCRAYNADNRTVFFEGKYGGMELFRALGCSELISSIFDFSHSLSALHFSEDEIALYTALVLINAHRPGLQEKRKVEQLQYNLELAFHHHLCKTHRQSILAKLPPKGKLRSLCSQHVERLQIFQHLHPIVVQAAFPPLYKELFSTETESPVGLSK
From the text: RORγt (LBD) Reporter Assay
Cells used in the assay were co-transfected with two constructs. The first construct, pBIND-RORγt LBD, contained the wild type human RORγt LBD fused to the DNA binding domain of the GAL4 protein. The second construct, pGL4.31 (Promega Cat no. C935A), contained multiple GAL4 responsive DNA elements upstream of firefly luciferase. […] The mutant construct was called pBIND-RORγt-AF2.
The pBIND vector contains the GAL4 DNA Binding Domain (GAL4 DBD) and the renilla luciferase gene under control of the SV40 promoter. Renilla luciferase expression serves as a control for transfection efficiency and cell viability.
The reporter assay was performed by transiently transfecting HEK293T cells with 5 μg of pBIND-RORγt LBD or pBIND-RORγt LBD-AF2 and 5 μg pGL4.31 (Promega Cat no. C935A) using Fugene 6 (Invitrogen Cat no. E2691) at a 1:6 ratio of DNA:Fugene 6 in a T-75 flask in which cells were at least 80% confluent. Twenty four hours after bulk transfection, cells were plated into 96-well plates at 50,000 cells/well in phenol-red free DMEM containing 5% Lipid Reduced FCS and Pen/Strep. Six hours after plating, cells were treated with compounds for 24 hours. Media was removed and cells were lysed with 50 μL 1× Glo Lysis Buffer (Promega). Dual Glo Luciferase Reagent (50 μL/well) was then added and firefly luciferase luminescence was read on an Envision after a ten minute incubation. Finally, Stop and Glo reagent (50 μL/well) was added and renilla luciferase luminescence was read on an Envision after a ten minute incubation. […] Agonist compounds increase RORγt-driven luciferase expression, and antagonist or inverse agonist compounds decrease luciferase expression.

[2] = molecular target: T2, human RORγt ligand binding domain (RORγt LBD) (Homo sapiens, UniProt P51449); experiment: RORγt ThermoFluor assay (ligand binding affinity from protein thermal stability)
T2 construct: His-tag (N); TurboTEV protease cleavage site (ENLYFQG) (N); made in house; host or cells: E. coli (pHIS1, modified pET vector)
T2 sequence (P51449 with tags, fused parts or gaps): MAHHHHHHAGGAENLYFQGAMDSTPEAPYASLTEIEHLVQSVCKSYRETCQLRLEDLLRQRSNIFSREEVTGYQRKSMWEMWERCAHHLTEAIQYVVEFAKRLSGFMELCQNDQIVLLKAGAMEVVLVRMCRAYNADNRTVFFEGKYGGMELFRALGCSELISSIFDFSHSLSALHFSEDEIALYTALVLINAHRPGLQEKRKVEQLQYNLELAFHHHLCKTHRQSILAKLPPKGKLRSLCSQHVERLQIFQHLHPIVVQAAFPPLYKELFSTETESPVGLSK
Experimental: This approach is applicable to a wide variety of systems, and rigorous in theoretical interpretation through quantitation of equilibrium binding constants (KD).
The shift in the melting point described as a ΔTm is proportional to the concentration and affinity of the ligand.
RORγt ThermoFluor® Assay Construct
Protein and compound solutions are dispensed into black 384-well polypropylene PCR microplates (Abgene) and overlayed with silicone oil (1 μL, Fluka, type DC 200) to prevent evaporation.
Bar-coded assay plates are robotically loaded onto a thermostatically controlled PCR-type thermal block and then heated at a typical ramp-rate of 1° C./min for all experiments. Fluorescence was measured by continuous illumination with UV light (Hamamatsu LC6) supplied via fiber optic and filtered through a band-pass filter (380-400 nm; >6 OD cutoff). Fluorescence emission of the entire 384-well plate was detected by measuring light intensity using a CCD camera (Sensys, Roper Scientific) filtered to detect 500±25 nm, resulting in simultaneous and independent readings of all 384 wells. Images were collected at each temperature, and the sum of the pixel intensity in a given area of the assay plate was recorded versus temperature. Reference wells contained RORγt without compounds, and the assay conditions were as follows: • 0.065 mg/mL RORγt • 60 μM 1,8-ANS • 100 mM Hepes, pH 7.0 • 10 mM NaCl • 2.5 mM GSH • 0.002% Tween-20
Project compounds were arranged in a pre-dosed mother plate (Greiner Bio-one) wherein compounds are serially diluted in 100% DMSO by 1:2 from a high concentration of 10 mM over 12 columns within a series (column 12 is a reference well containing DMSO, no compound). The compounds were robotically dispensed directly into assay plates (1×=[…]) using a Hummingbird capillary liquid handling instrument (Digilab). Following compound dispense, protein and dye in buffer was added to achieve the final assay volume of 3 μL, followed by 1 μL of silicone oil.

Row | SMILES | IC50 ([1]; Homo sapiens, CD4+ T) [nM] | IC50 [1] [nM] | IC50 (human RORγt LBD) [nM] | Kd [2] [nM] | inhibition at 6 µM (human RORγt LBD) [%] | RORγt (LBD) Reporter Assay, % inhibition @ 6 μM (human RORγt LBD; 6 μM compound, 6 µM) [%]
1 | CCc1nc2ccc(C(O)(c3cnnn3C)c3cnc(C)n3C)cc2c(Cl)c1Cc1ccc(C(F)(F)F)cc1 (single isomer, unassigned) [Example 25b, (4-Chloro-2-ethyl-3-(4-(trifluoromethyl)benzyl)quinolin-6-yl)(1,2-dimethyl-1H-imidazol-5-yl)(1-methyl-1H-1,2,3-triazol-5-yl)methanol] | 2.1 |  |  |  |  | 
2 | COc1nc2ccc(C(N)(c3ccc(Cl)cc3)c3cncn3C)cc2c(Cl)c1Cc1ccc(-n2cccn2)cc1 (single isomer, unassigned) [Example 118c, (3-(4-(1H-Pyrazol-1-yl)benzyl)-4-chloro-2-methoxyquinolin-6-yl)(4-chlorophenyl)(1-methyl-1H-imidazol-5-yl)methanamine•TFA] |  | 50 |  |  |  | 
3 | CNC(c1ccc2nc(OC)c(Cc3ccc(C(F)(F)F)cc3)c(Cl)c2c1)(c1ccc(C)nc1C)c1cnnn1C (single isomer, unassigned) [Example 121b, 1-(4-Chloro-2-methoxy-3-(4-(trifluoromethyl)benzyl)quinolin-6-yl)-1-(2,6-dimethylpyridin-3-yl)-N-methyl-1-(1-methyl-1H-1,2,3-triazol-5-yl)methanamine•TFA] |  |  | 410 | 370 |  | 
4 | CNC(c1ccc2nc(OC)c(Cc3ccc(C(F)(F)F)cc3)c(Cl)c2c1)(c1ccc(C)nc1C)c1cnnn1C (single isomer, unassigned) [Example 121c, 1-(4-Chloro-2-methoxy-3-(4-(trifluoromethyl)benzyl)quinolin-6-yl)-1-(2,6-dimethylpyridin-3-yl)-N-methyl-1-(1-methyl-1H-1,2,3-triazol-5-yl)methanamine•TFA] |  |  | 220 | 130 |  | 
5 | COc1nc2ccc(C(c3ccc(C)nc3C)(c3cnnn3C)N(C)C)cc2c(Cl)c1Cc1ccc(C(F)(F)F)cc1 (single isomer, unassigned) [Example 122b, 1-(4-Chloro-2-methoxy-3-(4-(trifluoromethyl)benzyl)quinolin-6-yl)-1-(2,6-dimethylpyridin-3-yl)-N,N-dimethyl-1-(1-methyl-1H-1,2,3-triazol-5-yl)methanamine•TFA] |  |  | 1400 | > 83000 |  | 
6 | COc1nc2ccc(C(c3ccc(C)nc3C)(c3cnnn3C)N(C)C)cc2c(Cl)c1Cc1ccc(C(F)(F)F)cc1 (single isomer, unassigned) [Example 122c, 1-(4-Chloro-2-methoxy-3-(4-(trifluoromethyl)benzyl)quinolin-6-yl)-1-(2,6-dimethylpyridin-3-yl)-N,N-dimethyl-1-(1-methyl-1H-1,2,3-triazol-5-yl)methanamine•TFA] |  |  | 87 | 2.2 |  | 
7 | COc1nc2ccc(C(O)(c3oc(C)nc3C)c3cnnn3C)cc2c(Cl)c1Cc1ccc(C(F)(F)F)cc1 (single isomer, unassigned) [Example 156b, (4-chloro-2-methoxy-3-(4-(trifluoromethyl)benzyl)quinolin-6-yl)(2,4-dimethyloxazol-5-yl)(1-methyl-1H-1,2,3-triazol-5-yl)methanol] |  |  | 87 | 75 | 98 | 
8 | COc1nc2ccc(C(O)(c3oc(C)nc3C)c3cnnn3C)cc2c(Cl)c1Cc1ccc(C(F)(F)F)cc1 (single isomer, unassigned) [Example 156c, (4-chloro-2-methoxy-3-(4-(trifluoromethyl)benzyl)quinolin-6-yl)(2,4-dimethyloxazol-5-yl)(1-methyl-1H-1,2,3-triazol-5-yl)methanol] |  |  | 1.9 | 0.59 |  | 99
9 | COc1nc2ccc(C(O)(c3ccc(C(F)(F)F)cc3)c3cccnc3)cc2c(Cl)c1Cc1ccc(-n2cccn2)cc1 (single isomer, unassigned) [Example 162b] |  |  | 1100 | 16000 | 81 | 
10 | COc1nc2ccc(C(O)(c3cnc(C)n3C)c3cnc(C)n3C)cc2c(Cl)c1Cc1ccc(-n2cccn2)cc1 [Example 13, (3-(4-(1H-Pyrazol-1-yl)benzyl)-4-chloro-2-methoxyquinolin-6-yl)bis(1,2-dimethyl-1H-imidazol-5-yl)methanol] |  | 100 |  |  |  | 
11 | COc1nc2ccc(C(O)(c3ccc(C)nc3C)c3cnnn3C)cc2c(Cl)c1Cc1ccc(F)cc1 (centres unmarked) [Example 48a, (4-Chloro-3-(4-fluorobenzyl)-2-methoxyquinolin-6-yl)(2,6-dimethylpyridin-3-yl)(1-methyl-1H-1,2,3-triazol-5-yl)methanol] |  |  | 450 | 0.85 | 61 | 
12 | COc1nc2ccc(C(O)(c3ccc(C)nc3C)c3cnnn3C)cc2c(C#N)c1Cc1ccc(F)cc1 (centres unmarked) [Example 49a, 6-((2,6-Dimethylpyridin-3-yl)(hydroxy)(1-methyl-1H-1,2,3-triazol-5-yl)methyl)-3-(4-fluorobenzyl)-2-methoxyquinoline-4-carbonitrile] |  |  | 52 | 1.7 | 84 | 
13 | COc1nc2ccc(C(O)(c3ccccn3)c3cncn3C)cc2c(Cl)c1Cc1ccc(C(F)(F)F)cc1 (centres unmarked) [Example 68, (4-Chloro-2-methoxy-3-(4-(trifluoromethyl)benzyl)quinolin-6-yl)(1-methyl-1H-imidazol-5-yl)(pyridin-2-yl)methanol•TFA] |  |  | 65 | 53 | 101 | 
14 | COc1nc2ccc(C(O)(c3ccc(Cl)cc3)c3cncn3C)cc2c(Cl)c1Cc1cccc(C#N)c1 (centres unmarked) [Example 70, 3-((4-Chloro-6-((4-chlorophenyl)(hydroxy)(1-methyl-1H-imidazol-5-yl)methyl)-2-methoxyquinolin-3-yl)methyl)benzonitrile•TFA] |  |  | 430 | 120 | 94 | 
